The source of these data is patent US11999727B2 (Tango Therapeutics, Inc., priority 2020, dated 2024).

Test [1] addresses T1, PRMT5 (Homo sapiens, UniProt O14744).
T1 construct: purchased Viva (custom protein)
The experiment in a line: PRMT5 biochemical IC50 assay with SAM as cofactor. Particulars: PRMT5, SAM as cofactor; read-out: SAM IC50.

Test [2] concerns the target T1, PRMT5. Put plainly: PRMT5 biochemical IC50 assay with no cofactor. The note with it: PRMT5, no cofactor; read-out: No Cofactor/ rel IC50. From the text: Table 1 indicates IC50 values (μM) against PRMT5 for exemplary compounds in the presence of SAM as cofactor, with no cofactor, and with MTA as cofactor, respectively (columns 4-6). […] Ki values can be calculated from the IC50 values as described in the Examples section. As detailed in the Examples section, for the assay performed in the presence of SAM, IC50=Ki×1.5 (Ki=IC50/1.5).

Test [3] deals with T1, PRMT5. The experiment in a line: PRMT5 biochemical IC50 assay with MTA as cofactor. The note with it: PRMT5, MTA as cofactor; read-out: MTA IC50.
Test [4] has as its system HAP1 MTAP-intact cell line. Put plainly: SDMA in-cell western assay, HAP1 MTAP-intact. It counts as cell-based. Particulars: Homo sapiens, HAP1, SDMA in-cell western, HAP1 MTAP-intact; read-out: MTAP HAP1 intact IC50. An outline of the steps:
(§1)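 Readout: in-cell western detection of SDMA. Cells: HAP1 expressing endogenous MTAP and an MTAP-null HAP1 counterpart. Output: IC50.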

In test [5] the test system is HAP1 MTAP-deleted cell line. The experiment in a line: SDMA in-cell western assay, HAP1 MTAP-deleted. The note with it: for pIC50: Homo sapiens, HAP1, SDMA in-cell western, HAP1 MTAP-deleted, read-out: HAP 1 MTAP deleted IC50; for MTAP intact/deleted ratio: IC50 ratio HAP1 MTAP-intact / HAP1 MTAP-deleted, SDMA in-cell western. It counts as cell-based. An outline of the steps: as §1

In test [6] the test system is HAP1 MTAP-deleted cell line. The experiment in a line: Viability assay, MTAP-deleted cell line. It counts as cell-based. The note with it: Homo sapiens, HAP1, viability assay, MTAP-deleted cell line; read-out: HAP1 MTAP deleted viability. From the text: Table 1 additionally indicates IC50 values in a viability assay for the MTAP-deleted cell line (column 10), indicating the effect of treatment with compound on cell survival.

pIC50: −log10 of the molar value.

T1 sequence (O14744 whole entry): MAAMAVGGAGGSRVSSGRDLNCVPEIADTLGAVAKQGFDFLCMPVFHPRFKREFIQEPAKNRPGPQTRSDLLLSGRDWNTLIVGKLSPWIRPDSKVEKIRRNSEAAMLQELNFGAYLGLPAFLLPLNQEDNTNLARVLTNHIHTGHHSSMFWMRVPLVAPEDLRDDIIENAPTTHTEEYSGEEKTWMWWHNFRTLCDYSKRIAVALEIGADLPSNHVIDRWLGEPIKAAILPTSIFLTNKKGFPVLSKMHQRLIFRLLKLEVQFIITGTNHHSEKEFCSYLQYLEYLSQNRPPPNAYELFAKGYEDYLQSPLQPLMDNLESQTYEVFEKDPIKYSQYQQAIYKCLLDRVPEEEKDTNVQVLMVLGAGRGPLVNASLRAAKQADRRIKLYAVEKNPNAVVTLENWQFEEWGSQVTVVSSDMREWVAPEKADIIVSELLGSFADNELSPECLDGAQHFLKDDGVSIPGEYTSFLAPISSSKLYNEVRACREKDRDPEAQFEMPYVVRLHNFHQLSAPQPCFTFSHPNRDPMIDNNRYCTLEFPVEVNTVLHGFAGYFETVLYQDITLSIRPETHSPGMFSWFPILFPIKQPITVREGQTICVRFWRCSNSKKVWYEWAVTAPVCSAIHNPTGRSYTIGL
T1 sequence (Q9BQA1 whole entry partner): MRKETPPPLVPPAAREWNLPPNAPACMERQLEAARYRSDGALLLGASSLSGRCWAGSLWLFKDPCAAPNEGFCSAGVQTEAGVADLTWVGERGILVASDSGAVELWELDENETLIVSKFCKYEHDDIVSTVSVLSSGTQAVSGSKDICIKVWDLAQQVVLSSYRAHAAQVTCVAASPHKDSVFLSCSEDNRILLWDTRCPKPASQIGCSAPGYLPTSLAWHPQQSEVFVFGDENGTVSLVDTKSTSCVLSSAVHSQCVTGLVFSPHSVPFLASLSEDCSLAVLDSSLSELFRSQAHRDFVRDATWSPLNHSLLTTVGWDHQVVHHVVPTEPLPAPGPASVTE

Regarding `CNC(=O)c1ccc([C@H]2CC[C@H](C)CN2C(=O)C(=O)Nc2cncc(C)c2)cc1` (racemic) [Compound 92, N-methyl-4-(5-methyl-1-(2-((5-methylpyridin-3-yl)amino)-2-oxoacetyl)piperidin-2-yl)benzamide], the pIC50 in test [1] was less than 6.30; in test [2], less than 6.30; in test [3], 6.30 to 7.30; in test [4], less than 6.00; in test [5], less than 6.00; in test [6] it was less than 5.00. The “MTAP intact/deleted ratio” value in test [5] is given as “C (an IC50 ratio of less than 3 fold)”.
Turning to `CC(=O)N1CCC(c2cccc(C3CCCCN3C(=O)C(=O)Nc3cnc(N)c(C)c3)c2)CC1` (racemic) [Compound 95, 2-(2-(3-(1-acetylpiperidin-4-yl)phenyl)piperidin-1-yl)-N-(6-amino-5-methylpyridin-3-yl)-2-oxoacetamide], the pIC50 in test [1] is 6.30 to 7.30; in test [2], 6.30 to 7.30; in test [3], greater than 7.30; in test [4], less than 6.00; in test [5] it was greater than 7.00; in test [6] it was 5.00 to 6.00. Also, the “MTAP intact/deleted ratio” value in test [5] is “A (an IC50 ratio greater than or equal to 10 fold)”.
Take `C[C@@H]1CC[C@@H](c2cccs2)N(C(=O)C(=O)Nc2cncc(C(N)=O)c2)C1` (racemic) [Compound 99, 5-(2-(5-methyl-2-(thiophen-2-yl)piperidin-1-yl)-2-oxoacetamido)nicotinamide]: the pIC50 in test [1] was 6.30 to 7.30; in test [2], 6.30 to 7.30; in test [3], greater than 7.30; in test [4], less than 6.00; in test [5], greater than 7.00; in test [6] it was 5.00 to 6.00. Also, the “MTAP intact/deleted ratio” value in test [5] is on record as “A (an IC50 ratio greater than or equal to 10 fold)”.
For the molecule `C[C@@H]1CC[C@@H](c2cccnc2)N(C(=O)C(=O)Nc2cncc(C(N)=O)c2)C1` (racemic) [Compound 102, 5-[[2-[5-methyl-2-(3-pyridyl)-1-piperidyl]-2-oxo-acetyl]amino]pyridine-3-carboxamide], the pIC50 in test [1] was 6.30 to 7.30; in test [2], 6.30 to 7.30; in test [3], greater than 7.30; in test [4] it was less than 6.00; in test [5], 6.00 to 7.00; in test [6], less than 5.00. In test [5], the “MTAP intact/deleted ratio” value is given as “A (an IC50 ratio greater than or equal to 10 fold)”.
Turning to `Cc1ncc([C@@H]2CC[C@@H](C)CN2C(=O)C(=O)Nc2cnc(N)c(C)c2)cn1` (racemic) [Compound 107, rac-N-(6-amino-5-methylpyridin-3-yl)-2-((2R,5S)-5-methyl-2-(2-methylpyrimidin-5-yl)piperidin-1-yl)-2-oxoacetamide], the pIC50 is 6.30 to 7.30 in test [1]; less than 6.30 in test [2]; 6.30 to 7.30 in test [3]; less than 6.00 in test [4]; less than 6.00 in test [5]; less than 5.00 in test [6]. Moreover, the “MTAP intact/deleted ratio” value in test [5] is on record as “C (an IC50 ratio of less than 3 fold)”.
Take `Cc1cc(NC(=O)C(=O)N2C[C@H](C)CC[C@H]2c2cncnc2)cnc1N` (racemic) [Compound 109, rac-N-(6-amino-5-methylpyridin-3-yl)-2-((2R,5S)-5-methyl-2-(pyrimidin-5-yl)piperidin-1-yl)-2-oxoacetamide]: the pIC50 is 6.30 to 7.30 in test [1]; less than 6.30 in test [2]; 6.30 to 7.30 in test [3]; less than 6.00 in test [4]; less than 6.00 in test [5]; less than 5.00 in test [6]. For the same molecule, the “MTAP intact/deleted ratio” value in test [5] is “B (an IC50 ratio greater than or equal to 3 fold but lower than 10 fold)”.
Take `CC(=O)Nc1cccc([C@@H]2CC[C@@H](C)CN2C(=O)C(=O)Nc2cncc(C)c2)c1` (racemic) [Compound 110, 2-[(2S,5R)-2-(3-acetamidophenyl)-5-methyl-1-piperidyl]-N-(5-methyl-3-pyridyl)-2-oxo-acetamide]: the pIC50 in test [1] was 6.30 to 7.30; in test [2], 6.30 to 7.30; in test [3], 6.30 to 7.30; in test [4], less than 6.00; in test [5], less than 6.00; in test [6], less than 5.00. Further, the “MTAP intact/deleted ratio” value in test [5] was “B (an IC50 ratio greater than or equal to 3 fold but lower than 10 fold)”.
Turning to `CC(=O)Nc1ccc([C@@H]2CC[C@@H](C)CN2C(=O)C(=O)Nc2cncc(C)c2)cc1` (racemic) [Compound 111, 2-[(2R,5S)-2-(4-acetamidophenyl)-5-methyl-1-piperidyl]-N-(5-methyl-3-pyridyl)-2-oxo-acetamide], the pIC50 in test [1] was 6.30 to 7.30; in test [2], 6.30 to 7.30; in test [3], 6.30 to 7.30; in test [4], less than 6.00; in test [5], 6.00 to 7.00; in test [6], less than 5.00. Besides, the “MTAP intact/deleted ratio” value in test [5] was “A (an IC50 ratio greater than or equal to 10 fold)”.
In the case of `Cc1cc(NC(=O)C(=O)N2[C@@H](C)CCC[C@H]2c2ccccc2)cnc1N` (racemic) [Compound 112, N-(6-amino-5-methyl-3-pyridyl)-2-[rac-(2R,6R)-2-methyl-6-phenyl-1-piperidyl]-2-oxo-acetamide], the pIC50 in test [1] was 6.30 to 7.30; in test [2], 6.30 to 7.30; in test [3] it was greater than 7.30; in test [4], 6.00 to 7.00; in test [5] it was greater than 7.00; in test [6] it was 5.00 to 6.00. The “MTAP intact/deleted ratio” value in test [5] was “B (an IC50 ratio greater than or equal to 3 fold but lower than 10 fold)”.
With `COc1cc([C@@H]2CC[C@@H](C)CN2C(=O)C(=O)Nc2cncc(C(N)=O)c2)ccc1Cl` (racemic) [Compound 114, rac-rac-5-{2-[(2R,5S)-2-(4-chloro-3-methoxyphenyl)-5-methylpiperidin-1-yl]-2-oxoacetamido}pyridine-3-carboxamide], the pIC50 in test [1] was 6.30 to 7.30; in test [2] it was 6.30 to 7.30; in test [3], greater than 7.30; in test [4], less than 6.00; in test [5], greater than 7.00; in test [6] it was less than 5.00. Besides, the “MTAP intact/deleted ratio” value in test [5] is “A (an IC50 ratio greater than or equal to 10 fold)”.
With `Cc1cc(C)cc([C@@H]2CC[C@@H](C)CN2C(=O)C(=O)Nc2cncc(C(N)=O)c2)c1` (racemic) [Compound 118, rac-5-{2-[(2R,5S)-2-(3,5-dimethylphenyl)-5-methylpiperidin-1-yl]-2-oxoacetamido}pyridine-3-carboxamide], the pIC50 was 6.30 to 7.30 in test [1]; less than 6.30 in test [2]; greater than 7.30 in test [3]; less than 6.00 in test [4]; 6.00 to 7.00 in test [5]; less than 5.00 in test [6]. Besides, the “MTAP intact/deleted ratio” value in test [5] is listed as “A (an IC50 ratio greater than or equal to 10 fold)”.
Consider `NC(=O)c1cncc(NC(=O)C(=O)N2CCCC3(C2)OC[C@@H]2C[C@@H]23)c1` (mixture of isomers) [Compound 124, rac-5-{2-[(R,5S)-3-Oxaspiro[bicyclo[3.1.0]hexane-2,3′-piperidine]-1′-yl]-2-oxoacetamido}pyridine-3-carboxamide], for which the pIC50 in test [1] was less than 6.30; in test [2], less than 6.30; in test [3], 6.30 to 7.30; in test [4], less than 6.00; in test [5], less than 6.00; in test [6], less than 5.00. In addition, in test [5], the “MTAP intact/deleted ratio” value is given as “C (an IC50 ratio of less than 3 fold)”.
Regarding `C[C@@H]1CC[C@@H](c2cccc(C(N)=O)c2)N(C(=O)C(=O)Nc2cncc(C(N)=O)c2)C1` (racemic) [Compound 125, rac-5-{2-[(2R,5S)-2-(3-Carbamoylphenyl)-5-methylpiperidin-1-yl]-2-oxoacetamido}pyridine-3-carboxamide], the pIC50 was 6.30 to 7.30 in test [1]; 6.30 to 7.30 in test [2]; 6.30 to 7.30 in test [3]; less than 6.00 in test [4]; less than 6.00 in test [5]; less than 5.00 in test [6]. Besides, the “MTAP intact/deleted ratio” value in test [5] was “B (an IC50 ratio greater than or equal to 3 fold but lower than 10 fold)”.
Consider `COc1ccc([C@@H]2CC[C@@H](C)CN2C(=O)C(=O)Nc2cncc(C(N)=O)c2)cn1` (racemic) [Compound 128, rac-5-{2-[(2R,5S)-2-(6-Methoxypyridin-3-yl)-5-methylpiperidin-1-yl]-2-oxoacetamido}pyridine-3-carboxamide], for which the pIC50 was 6.30 to 7.30 in test [1]; 6.30 to 7.30 in test [2]; greater than 7.30 in test [3]; less than 6.00 in test [4]; 6.00 to 7.00 in test [5]; less than 5.00 in test [6]. Besides, in test [5], the “MTAP intact/deleted ratio” value is listed as “A (an IC50 ratio greater than or equal to 10 fold)”.
In the case of `Cc1cc([C@@H]2CC[C@@H](C)CN2C(=O)C(=O)Nc2cncc(C(N)=O)c2)ccc1F` (racemic) [Compound 131, rac-5-{2-[(2R,5S)-2-(4-Fluoro-3-methylphenyl)-5-methylpiperidin-1-yl]-2-oxoacetamido}pyridine-3-carboxamide], the pIC50 in test [1] was less than 6.30; in test [2], 6.30 to 7.30; in test [3], greater than 7.30; in test [4], less than 6.00; in test [5] it was greater than 7.00; in test [6], 5.00 to 6.00. In addition, in test [5], the “MTAP intact/deleted ratio” value is “A (an IC50 ratio greater than or equal to 10 fold)”.
